Measurements reported in the NIST ThermoML archive (doi:10.1016/j.fluid.2012.11.005).
Numbers after ± are expanded uncertainties.

Test: excess molar enthalpy (molar enthalpy of mixing); xn = mol fraction of the nth substance listed
Settings: 101 kPa, Liquid, Flow calorimetry

CC(C)CC(C)(C)C [2,2,4-trimethylpentane] + CCCCCO
x2 = 0
Settings	excess molar enthalpy [kcal/mol]
298.15 K	0 ± 0.000239
313.15 K	0 ± 0.000239

CCCCCO [pentan-1-ol] + CC(C)CC(C)(C)C
excess molar enthalpy [kcal/mol]
Settings	298.15 K	313.15 K
x1 = 0.0508	0.0899 ± 0.00122	–
x1 = 0.051	–	0.124 ± 0.00165
x1 = 0.0999	0.112 ± 0.00148	–
x1 = 0.1003	–	0.155 ± 0.00201
x1 = 0.1501	0.126 ± 0.00165	–
x1 = 0.1506	–	0.174 ± 0.00225
x1 = 0.2008	0.137 ± 0.00177	–
x1 = 0.2019	–	0.187 ± 0.00239
x1 = 0.25	0.143 ± 0.00186	–
x1 = 0.2512	–	0.194 ± 0.00239
x1 = 0.2999	0.148 ± 0.00191	–
x1 = 0.3012	–	0.199 ± 0.00263
x1 = 0.3516	0.148 ± 0.00191	–
x1 = 0.3517	–	0.2 ± 0.00263
x1 = 0.4025	0.147 ± 0.00191	–
x1 = 0.4026	–	0.199 ± 0.00263
x1 = 0.4514	0.145 ± 0.00189	0.194 ± 0.00239
x1 = 0.5025	0.139 ± 0.00182	–
x1 = 0.5026	–	0.187 ± 0.00239
x1 = 0.5516	0.131 ± 0.00172	–
x1 = 0.5517	–	0.177 ± 0.00227
x1 = 0.6025	0.121 ± 0.00158	–
x1 = 0.6026	–	0.164 ± 0.0021
x1 = 0.6513	0.109 ± 0.00143	0.148 ± 0.00191
x1 = 0.7015	0.0951 ± 0.00127	–
x1 = 0.7016	–	0.13 ± 0.0017
x1 = 0.7512	0.0802 ± 0.0011	–
x1 = 0.7513	–	0.11 ± 0.00146
x1 = 0.8003	0.064 ± 0.000884	0.088 ± 0.0012
x1 = 0.8503	0.048 ± 0.000693	0.0654 ± 0.000908
x1 = 0.9008	0.0311 ± 0.000502	0.0423 ± 0.000645
x1 = 0.9503	0.0147 ± 0.000311	0.0205 ± 0.000382
x1 = 1	0 ± 0.000239	0 ± 0.000239

CCCCCO [pentan-1-ol] + CCCCCCC
excess molar enthalpy [kcal/mol]
Settings	298.15 K	313.15 K
x1 = 0.0484	–	0.113 ± 0.00153
x1 = 0.0563	0.088 ± 0.0012	–
x1 = 0.0981	–	0.148 ± 0.00191
x1 = 0.1109	0.111 ± 0.00146	–
x1 = 0.149	–	0.165 ± 0.00213
x1 = 0.1664	0.125 ± 0.00165	–
x1 = 0.1985	–	0.177 ± 0.00227
x1 = 0.2203	0.134 ± 0.00174	–
x1 = 0.2491	–	0.187 ± 0.00239
x1 = 0.2749	0.141 ± 0.00184	–
x1 = 0.2983	–	0.19 ± 0.00239
x1 = 0.3279	0.145 ± 0.00186	–
x1 = 0.3483	–	0.192 ± 0.00239
x1 = 0.3793	0.146 ± 0.00189	–
x1 = 0.3991	–	0.186 ± 0.00239
x1 = 0.4314	0.144 ± 0.00186	–
x1 = 0.4484	–	0.186 ± 0.00239
x1 = 0.4818	0.139 ± 0.00182	–
x1 = 0.4984	–	0.177 ± 0.00227
x1 = 0.5328	0.131 ± 0.00172	–
x1 = 0.5488	–	0.166 ± 0.00215
x1 = 0.5822	0.122 ± 0.0016	–
x1 = 0.5977	–	0.159 ± 0.00206
x1 = 0.6281	0.11 ± 0.00146	–
x1 = 0.6489	–	0.144 ± 0.00186
x1 = 0.6765	0.0984 ± 0.00131	–
x1 = 0.7003	–	0.124 ± 0.00163
x1 = 0.7235	0.0849 ± 0.00115	–
x1 = 0.7483	–	0.106 ± 0.00141
x1 = 0.7725	0.071 ± 0.00098	–
x1 = 0.7981	–	0.0845 ± 0.00115
x1 = 0.8182	0.0576 ± 0.000813	–
x1 = 0.8497	–	0.0637 ± 0.000884
x1 = 0.8643	0.0427 ± 0.000645	–
x1 = 0.8995	–	0.042 ± 0.000645
x1 = 0.9104	0.0282 ± 0.000478	–
x1 = 0.9491	–	0.0196 ± 0.000382
x1 = 0.9552	0.0138 ± 0.000311	–
x1 = 1	0 ± 0.000239	0 ± 0.000239

CCCCCCC [heptane] + CCCCCO
x2 = 0
Settings	excess molar enthalpy [kcal/mol]
298.15 K	0 ± 0.000239
313.15 K	0 ± 0.000239
